Test: Preservation stability of the coating liquid
Assay type: physicochemical
Conditions: coating liquid stored for 2 months shielded from light at 0° C.; appearance and GPC
Description: The preservation stability of the coating liquid was evaluated on a scale of A to E on the basis of the state of the coating liquid that was stored for 2 months under a condition where the coating liquid was shielded from light at 0° C.
A: No visual change in the appearance of the coating liquid was confirmed. A GPC analysis of the coating liquid confirmed that the change in the composition of the coating liquid was 1% or less.
B: No visual change in the appearance of the coating liquid was confirmed. A GPC analysis of the coating liquid confirmed that the change in the composition of the coating liquid was 2% or less.
C: A visual change in the appearance of the coating liquid was confirmed; a trace amount of insoluble components were confirmed, or a GPC analysis of the coating liquid confirmed that the change in the composition of the coating liquid was 3% or less.
D: A visual change in the appearance of the coating liquid was confirmed; insoluble components were confirmed. The ratio of the weight of the insoluble components to the total solid content was 5% or less.
E: A large amount of insoluble components were visually confirmed. The ratio of the weight of the insoluble components to the total solid content was 5% or more.

Structure (SMILES)	Preservation stability
C=CC(=O)OCCCCOC(=O)C1CCC(C(=O)OC2CCC(C(=O)Oc3ccc(OC(=O)C4CCC(OC(=O)C5CCC(C(=O)OCCCCOC(=O)C=C)CC5)CC4)c(/C=N/N(CCC)c4nc5ccccc5s4)c3)CC2)CC1 (centres unmarked) [1-f-100]	A (No visual change in the appearance of the coating liquid was confirmed. A GPC analysis of the coating liquid confirmed that the change in the composition of the coating liquid was 1% or less.)
C=CC(=O)OCCCCCCOc1ccc(OC(=O)c2ccc(OC(=O)c3ccc4cc(OCCCCCCOC(=O)C=C)ccc4c3)cc2)c(/C=N/Nc2nc3ccccc3s2)c1 [1-eh-75]	A (No visual change in the appearance of the coating liquid was confirmed. A GPC analysis of the coating liquid confirmed that the change in the composition of the coating liquid was 1% or less.)
C=CC(=O)OCCCCCCOc1ccc(OC(=O)C2CCC(COc3ccc(OCC4CCC(C(=O)Oc5ccc(OCCCCCCOC(=O)C=C)cc5)CC4)c(/C=N/N(CCOCCOC)c4nc5ccccc5s4)c3)CC2)cc1 (centres unmarked) [1-cmn-91]	A (No visual change in the appearance of the coating liquid was confirmed. A GPC analysis of the coating liquid confirmed that the change in the composition of the coating liquid was 1% or less.)
C=CC(=O)OCCCCCCOc1ccc(C(=O)Oc2ccc(OCCCCCCOC(=O)C=C)cc2/C=N/Nc2nc3ccccc3s2)cc1 [1-e-70]	A (No visual change in the appearance of the coating liquid was confirmed. A GPC analysis of the coating liquid confirmed that the change in the composition of the coating liquid was 1% or less.)
C=CC(=O)OCCCCOC(=O)/C=C/c1ccc(C(=O)Oc2ccc(OC(=O)c3ccc(/C=C/C(=O)OCCCCOC(=O)C=C)cc3)c(/C=N/N(c3ccccc3)c3ccccc3)c2)cc1 [1-j-64]	B (No visual change in the appearance of the coating liquid was confirmed. A GPC analysis of the coating liquid confirmed that the change in the composition of the coating liquid was 2% or less.)
C=CC(=O)OCCCOC(=O)/C=C/c1ccc(C(=O)Oc2ccc(OC(=O)c3ccc(/C=C/C(=O)OCCCOC(=O)C=C)cc3)c(/C=N/Nc3nc4ccccc4s3)c2)cc1 [1-j-61]	B (No visual change in the appearance of the coating liquid was confirmed. A GPC analysis of the coating liquid confirmed that the change in the composition of the coating liquid was 2% or less.)
C=CC(=O)OCCCCCCOC1CCC(C(=O)Oc2ccc(OC(=O)C3CCC(OCCCCCCOC(=O)C=C)CC3)c(/C=N/N(c3ccccc3)c3ccccc3)c2)CC1 (centres unmarked) [1-f-21]	A (No visual change in the appearance of the coating liquid was confirmed. A GPC analysis of the coating liquid confirmed that the change in the composition of the coating liquid was 1% or less.)
C=CC(=O)OCCCOc1ccc(C(=O)OCCc2ccc(CCOC(=O)c3ccc(OCCCOC(=O)C=C)cc3)c(/C=N/N(C(=O)C=C)c3nc(-c4ccc5ccccc5c4)cs3)c2)cc1 [1-c-41]	A (No visual change in the appearance of the coating liquid was confirmed. A GPC analysis of the coating liquid confirmed that the change in the composition of the coating liquid was 1% or less.)
C=CC(=O)OCCCCCCOc1ccc(C(=O)Oc2ccc(OC(=O)c3ccc(OCCCCCCOC(=O)C=C)cc3)c3sc(-c4ccc([N+](=O)[O-])cc4)nc23)cc1 [r-1, reference compound]	D (A visual change in the appearance of the coating liquid was confirmed; insoluble components were confirmed. The ratio of the weight of the insoluble components to the total solid content was 5% or less.)
C=CC(=O)OCCCOC(=O)/C=C/c1ccc(CCC(=O)Oc2ccc(OC(=O)CCc3ccc(/C=C/C(=O)OCCCOC(=O)C=C)cc3)c(/C=N/Nc3nc4ccccc4s3)c2)cc1 [1-cj-63]	A (No visual change in the appearance of the coating liquid was confirmed. A GPC analysis of the coating liquid confirmed that the change in the composition of the coating liquid was 1% or less.)
C=CC(=O)OCCCCOc1ccc(C(=O)OCCc2ccc(OC(=O)c3ccc(OCCCCOC(=O)CC)cc3)c(/C=N/Nc3cc4ccccc4[nH]3)c2)cc1 [1-c-28]	B (No visual change in the appearance of the coating liquid was confirmed. A GPC analysis of the coating liquid confirmed that the change in the composition of the coating liquid was 2% or less.)

Source: patent publication US10633353B2, “Polymerizable compound, composition, polymer, optically anisotropic body, liquid crystal display element, and organic EL display” (DIC Corporation, priority 2014, dated 2020)
